Like-named read-outs stand apart in the source and are kept apart here.
Experiment: Timed organ biodistribution of [^64Cu]Cu-DOTATATE by ex vivo gamma counting
Assay type: in vivo, mice
Settings: mouse, intravenous, 1.85 MBq, total radioactivity, median (IQR); for tissue uptake at 1 min: 1 min after injection; for tissue uptake at 5 min: 5 min after injection; for tissue uptake at 0.25 h: 15 min after injection; for tissue uptake at 0.5 h: 30 min after injection; for tissue uptake at 2 h: 120 min after injection; for tissue uptake at 1 h: 60 min after injection
Method: Wild-type and atherosclerotic animals were injected with approximately 1.85 MBq of [^64Cu]Cu-DOTATATE and euthanized at either 1, 5, 15, 30, 60 or 120 min after injection (Supplementary Fig. S1A) to evaluate the tracer’s biodistribution. After euthanasia, an insulin syringe was used to collect blood samples from the right ventricle. Blood samples were used for the establishment of pharmacokinetics profile. Mice were then perfused with 20 mL of phosphate-buffered saline (PBS) and tissues of interest (heart, aorta, bone marrow, spleen, liver, stomach, bladder, kidneys, intestines, lungs, adrenal gland, muscles and pancreas) were harvested. Tissues were blotted for gamma counting on a Wizard2 2480 automatic gamma counter (Perkin Elmer, Waltham, MA). Values were corrected for decay and normalized to tissue weight to express radioactivity concentration as percentage injected dose per gram (%ID/g). […] To investigate the tracer’s distribution within different blood compartments, after gamma counting, 100 μL of blood were spun down at 2000 g for 15 min at 4 °C. Plasma (supernatant) and cells (pellet) were gamma counted and expressed as percentage of total activity. The remainder of the blood was separated using Lymphoprep density gradient medium (Nycomed Pharma, Zurich, Switzerland) following manufacturer’s instructions. Percentage of activity in mononuclear and polynuclear cells was calculated.

[1] = abdominal aorta, female Apoe^-/- mice 12 weeks on Western Diet, N=3-8, read-out: Tissue radioactivity, abdominal aorta
[2] = abdominal aorta, female C57BL/6 mice, N=3-7, read-out: Tissue radioactivity, abdominal aorta
[3] = adrenal gland, female Apoe^-/- mice 12 weeks on Western Diet, N=3-8, read-out: Tissue radioactivity, adrenal gland
[4] = adrenal gland, female C57BL/6 mice, N=3-7, read-out: Tissue radioactivity, adrenal gland
[5] = aortic arch, female Apoe^-/- mice 12 weeks on Western Diet, N=3-8, read-out: Tissue radioactivity, aortic arch
[6] = aortic arch, female C57BL/6 mice, N=3-7, read-out: Tissue radioactivity, aortic arch
[7] = bladder, female Apoe^-/- mice 12 weeks on Western Diet, N=3-8, read-out: Tissue radioactivity, bladder
[8] = bladder, female C57BL/6 mice, N=3-7, read-out: Tissue radioactivity, bladder
[9] = bone marrow, female Apoe^-/- mice 12 weeks on Western Diet, N=3-8, read-out: Tissue radioactivity, bone marrow
[10] = bone marrow, female C57BL/6 mice, N=3-7, read-out: Tissue radioactivity, bone marrow
[11] = fat, female Apoe^-/- mice 12 weeks on Western Diet, N=3-8, read-out: Tissue radioactivity, fat
[12] = fat, female C57BL/6 mice, N=3-7, read-out: Tissue radioactivity, fat
[13] = heart, female Apoe^-/- mice 12 weeks on Western Diet, N=3-8, read-out: Tissue radioactivity, heart
[14] = heart, female C57BL/6 mice, N=3-7, read-out: Tissue radioactivity, heart
[15] = kidneys, female Apoe^-/- mice 12 weeks on Western Diet, N=3-8, read-out: Tissue radioactivity, kidneys
[16] = kidneys, female C57BL/6 mice, N=3-7, read-out: Tissue radioactivity, kidneys
[17] = large intestine, female Apoe^-/- mice 12 weeks on Western Diet, N=3-8, read-out: Tissue radioactivity, large intestine
[18] = large intestine, female C57BL/6 mice, N=3-7, read-out: Tissue radioactivity, large intestine
[19] = liver, female Apoe^-/- mice 12 weeks on Western Diet, N=3-8, read-out: Tissue radioactivity, liver

C[C@@H](O)[C@H](NC(=O)[C@@H]1CSSC[C@H](NC(=O)[C@@H](Cc2ccccc2)NC(=O)CN2CCN(CC(=O)O)CCN(CC(=O)O)CCN(CC(=O)O)CC2)C(=O)N[C@@H](Cc2ccc(O)cc2)C(=O)N[C@H](Cc2c[nH]c3ccccc23)C(=O)N[C@@H](CCCCN)C(=O)N[C@@H]([C@@H](C)O)C(=O)N1)C(=O)O [[^64Cu]Cu-DOTATATE, metal not drawn]
tissue uptake at 1 min [1]: 3.1 %ID/g | tissue uptake at 5 min [1]: 3.2 %ID/g | tissue uptake at 0.25 h [1]: 2.1 %ID/g | tissue uptake at 0.5 h [1]: 2.5 %ID/g | tissue uptake at 2 h [1]: 2.1 %ID/g | tissue uptake at 1 min [2]: 5.1 %ID/g | tissue uptake at 5 min [2]: 3.8 %ID/g | tissue uptake at 0.25 h [2]: 2.4 %ID/g | tissue uptake at 0.5 h [2]: 1.7 %ID/g | tissue uptake at 1 h [2]: 1.3 %ID/g | tissue uptake at 2 h [2]: 0.7 %ID/g | tissue uptake at 1 min [3]: 1.4 %ID/g | tissue uptake at 5 min [3]: 1.2 %ID/g | tissue uptake at 0.25 h [3]: 1.4 %ID/g | tissue uptake at 0.5 h [3]: 1.5 %ID/g | tissue uptake at 1 h [3]: 1.4 %ID/g | tissue uptake at 2 h [3]: 1.1 %ID/g | tissue uptake at 0.25 h [4]: 1.7 %ID/g | tissue uptake at 0.5 h [4]: 1.6 %ID/g | tissue uptake at 1 h [4]: 1.6 %ID/g | tissue uptake at 2 h [4]: 0.6 %ID/g | tissue uptake at 1 min [5]: 2.9 %ID/g | tissue uptake at 0.25 h [5]: 1.7 %ID/g | tissue uptake at 0.5 h [5]: 1.7 %ID/g | tissue uptake at 1 min [6]: 2.8 %ID/g | tissue uptake at 0.25 h [6]: 1.3 %ID/g | tissue uptake at 0.5 h [6]: 1.1 %ID/g | tissue uptake at 1 h [6]: 1.1 %ID/g | tissue uptake at 2 h [6]: 1.2 %ID/g | tissue uptake at 1 min [7]: 1.7 %ID/g | tissue uptake at 5 min [7]: 98.7 %ID/g | tissue uptake at 0.25 h [7]: 38.9 %ID/g | tissue uptake at 0.5 h [7]: 2.9 %ID/g | tissue uptake at 1 h [7]: 4.7 %ID/g | tissue uptake at 2 h [7]: 2.4 %ID/g | tissue uptake at 1 min [8]: 4.6 %ID/g | tissue uptake at 5 min [8]: 36.4 %ID/g | tissue uptake at 0.25 h [8]: 7.9 %ID/g | tissue uptake at 0.5 h [8]: 6.8 %ID/g | tissue uptake at 2 h [8]: 10.4 %ID/g | tissue uptake at 1 min [9]: 3.1 %ID/g | tissue uptake at 5 min [9]: 2.3 %ID/g | tissue uptake at 0.25 h [9]: 2.6 %ID/g | tissue uptake at 2 h [9]: 2.7 %ID/g | tissue uptake at 5 min [10]: 4.3 %ID/g | tissue uptake at 0.25 h [10]: 3.5 %ID/g | tissue uptake at 1 h [10]: 2.1 %ID/g | tissue uptake at 2 h [10]: 2.5 %ID/g | tissue uptake at 1 min [11]: 0.3 %ID/g | tissue uptake at 5 min [11]: 0.4 %ID/g | tissue uptake at 0.25 h [11]: 0.4 %ID/g | tissue uptake at 0.5 h [11]: 0.3 %ID/g | tissue uptake at 1 h [11]: 0.2 %ID/g | tissue uptake at 2 h [11]: 0.2 %ID/g | tissue uptake at 1 min [12]: 1.1 %ID/g | tissue uptake at 5 min [12]: 1.3 %ID/g | tissue uptake at 0.25 h [12]: 0.8 %ID/g | tissue uptake at 0.5 h [12]: 0.5 %ID/g | tissue uptake at 1 h [12]: 0.3 %ID/g | tissue uptake at 2 h [12]: 0.2 %ID/g | tissue uptake at 1 min [13]: 2.3 %ID/g | tissue uptake at 5 min [13]: 1.4 %ID/g | tissue uptake at 0.25 h [13]: 1.1 %ID/g | tissue uptake at 1 h [13]: 1.3 %ID/g | tissue uptake at 2 h [13]: 1.4 %ID/g | tissue uptake at 1 min [14]: 3.8 %ID/g | tissue uptake at 5 min [14]: 2.1 %ID/g | tissue uptake at 0.25 h [14]: 1.1 %ID/g | tissue uptake at 1 h [14]: 0.8 %ID/g | tissue uptake at 2 h [14]: 0.7 %ID/g | tissue uptake at 1 min [15]: 15.6 %ID/g | tissue uptake at 5 min [15]: 22.9 %ID/g | tissue uptake at 0.25 h [15]: 13.2 %ID/g | tissue uptake at 0.5 h [15]: 8.8 %ID/g | tissue uptake at 1 min [16]: 26.8 %ID/g | tissue uptake at 5 min [16]: 20.5 %ID/g | tissue uptake at 0.25 h [16]: 11.5 %ID/g | tissue uptake at 0.5 h [16]: 8.2 %ID/g | tissue uptake at 1 h [16]: 6.1 %ID/g | tissue uptake at 1 min [17]: 1.3 %ID/g | tissue uptake at 5 min [17]: 1.3 %ID/g | tissue uptake at 0.5 h [17]: 2.8 %ID/g | tissue uptake at 2 h [17]: 3.8 %ID/g | tissue uptake at 1 min [18]: 2.7 %ID/g | tissue uptake at 5 min [18]: 1.6 %ID/g | tissue uptake at 0.5 h [18]: 1.7 %ID/g | tissue uptake at 1 h [18]: 3 %ID/g | tissue uptake at 2 h [18]: 3.1 %ID/g | tissue uptake at 1 min [19]: 4.4 %ID/g | tissue uptake at 5 min [19]: 4.9 %ID/g | tissue uptake at 0.25 h [19]: 8.6 %ID/g
